We go through 23 molecules from patent publication EP1908472A1, “Silicon derivatives for PET imaging” (Bayer Schering Pharma Aktiengesellschaft, priority 2006, dated 2008).

As a reminder, the fraction remaining is what is left of the initial amount, in per cent. The term half-life denotes how long it takes for the measured level to halve.

SMILES strings stand for the structures.

Data set [1] is described as follows: Hydrolytic stability of 19F fluorosilanes (hydrolysis to the hydroxy compound) at physiological pH. As to conditions: for remaining at 6 h / half-life: buffer; for remaining at 6 h: fraction of intact 19F compound after 6 hours under hydrolytic conditions at pH 7; for half-life: hydrolytic halflife, physiological pH (7.0), 19F compound, calculated from the kinetics; for rel. stability: ratio of hydrolytic halflife to radioactive halflife of 18-F (1.83 hours), pH 7.0. The format is physicochemical. Here is the method: The time dependent degree of hydrolysis of compounds of formula I in which X is a fluorine atom of isotope 19 to compounds of formula I in which X is a hydroxy group was determined at physiological pH (7.0). From the kinetics the hydrolytic halflife (t1/2) measured in hours [h] of compounds of formula I in which X is a fluorine atom of isotope 19 were calculated (Table 1, column 2).
The ratio of the hydrolytic halflifes of compounds of formula I in which X is a fluorine atom of isotope 19 and the radioactive halflife of the 18-F isotope (1.83 hours) is defined as relative stability (Table 1, column 3).
After 6 hours 90% of the 18-F isotope have been decayed.
Compounds of formula I in which X is a fluorine atom of isotope 18 are considered as useful for PET applications if the relative stability of their analogs bearing a fluorine atom of isotope 19 exceed a factor of four and if at least 50% of these compounds remain intact after 6 hours under hydrolytic conditions at pH 7.

The conditions of data set [2]: rats allowed to inhale the gas; shows fast release of fluoride in vivo; cited from earlier work.

As for `CC(C)[Si](F)(c1cccc(CC(=O)O)c1)C(C)C` [5e - F, [3-(Fluoro-diisopropyl-silanyl)-phenyl]-acetic acid], in data set [1], the fraction remaining at 6 h stood at 78%, the half-life is 20 h and the rel. stability is 10.9.

On to `CC(C)[Si](F)(c1ccc(CCCOC2CCCCO2)cc1)C(C)C` (racemic) [3c - F, (RS)-Fluoro-diisopropyl-{4-[3-(tetrahydro-pyran-2-yloxy)-propyl]-phenyl}-silane], for which, in data set [1], the amount remaining at 6 h came to 95%, the half-life was 99.9 h and the rel. stability is 54.6.

Take `CC(C)C[Si](F)(CC(C)C)c1ccc(COC2CCCCO2)cc1` (racemic) [Compound 3g-F, (RS)-Fluoro-diisobutyl-[4-(tetrahydro-pyran-2-yloxymethyl)-phenyl]-silane]: in data set [1], the fraction remaining at 6 h came to 59%, the half-life is 8.1 h and the rel. stability is 4.5.

`CC(C)[Si](F)(CCCNC(=O)c1ccccc1)C(C)C` [22 - F, N-[3-(Fluoro-diisopropyl-silanyl)-propyl]-benzamide]: in data set [1], the amount remaining at 6 h turned out to be 83%, the half-life was 33.6 h and the rel. stability is 18.4.

With `CC(C)C[Si](F)(CC(C)C)c1ccc(C(=O)O)cc1` [5g - F, 4-(Fluoro-diisobutyl-silanyl)-benzoic acid], in data set [1], the amount remaining at 6 h came out at 31%, the half-life is 3.5 h and the rel. stability stood at 1.9.

On to `CC(C)[Si](F)(c1cccc(CCO)c1)C(C)C` [4e - F, 2-[3-(Fluoro-diisopropyl-silanyl)-phenyl]-ethanol], for which, in data set [1], the share remaining at 6 h is 78%, the half-life was 23.3 h and the rel. stability is 12.7.

For `CC(C)[Si](F)(c1cccc(CCCOC2CCCCO2)c1)C(C)C` (racemic) [3d - F, (RS)-Fluoro-diisopropyl-{3-[3-(tetrahydro-pyran-2-yloxy)-propyl]-phenyl}-silane], in data set [1], the share remaining at 6 h is above 95%, the half-life is above 100 h and the rel. stability was above 54.6.

Turning to `CC(C)C[Si](F)(CC(C)C)c1ccc(CCOC2CCCCO2)cc1` (racemic) [Compound 3h-F, (RS)-Fluoro-diisobutyl-{4-[2-(tetrahydro-pyran-2-yloxy)-ethyl]-phenyl}-silane], in data set [1], the share remaining at 6 h was found to be 79%, the half-life is 19.2 h and the rel. stability was found to be 10.7.

For the molecule `CC(C)[Si](F)(c1ccc(CCO)cc1)C(C)C` [4b - F, 2-[4-(Fluoro-diisopropyl-silanyl)-phenyl]-ethanol], in data set [1], the fraction remaining at 6 h worked out at 84%, the half-life was 66.8 h and the rel. stability was determined as 36.5.

As for `F[Si](c1ccccc1)(c1ccccc1)c1ccc(CCOC2CCCCO2)cc1` (racemic) [3f - F, (RS)-Fluoro-diphenyl-{4-[2-(tetrahydro-pyran-2-yloxy)-ethyl]-phenyl}-silane], in data set [1], the amount remaining at 6 h is below 1%, the half-life is 0.07 h and the rel. stability is on record as 0.04.

On to `CC(C)[Si](F)(c1cccc(CCC(=O)O)c1)C(C)C` [5d - F, 3-[3-(Fluoro-diisopropyl-silanyl)-phenyl]-propionic acid], for which, in data set [1], the fraction remaining at 6 h worked out at 81%, the half-life is 22.2 h and the rel. stability is listed as 12.1.

For the molecule `CC(C)[Si](F)(c1cccc(CCOC2CCCCO2)c1)C(C)C` (racemic) [3e - F, (RS)-Fluoro-diisopropyl-{3-[2-(tetrahydro-pyran-2-yloxy)-ethyl]-phenyl}-silane], in data set [1], the fraction remaining at 6 h is above 95%, the half-life is above 100 h and the rel. stability is on record as above 54.6.

For the molecule `CC(C)C[Si](F)(CC(C)C)c1ccc(CC(=O)O)cc1` [5h - F, [4-(Fluoro-diisobutyl-silanyl)-phenyl]-acetic acid], in data set [1], the fraction remaining at 6 h came to 61%, the half-life was 8.7 h and the rel. stability is listed as 4.8.

Consider `CC(C)[Si](F)(c1ccc(CCCO)cc1)C(C)C` [4c - F, 3-[4-(Fluoro-diisopropyl-silanyl)-phenyl]-propan-1-ol], for which, in data set [1], the fraction remaining at 6 h amounted to 90%, the half-life was above 100 h and the rel. stability is on record as above 54.6.

Consider `CC(C)[Si](F)(c1ccc(C(=O)O)cc1)C(C)C` [5a - F, 4-(Fluoro-diisopropyl-silanyl)-benzoic acid], for which, in data set [1], the amount remaining at 6 h is 66%, the half-life is 10.9 h and the rel. stability was determined as 6.1.

As to `CC(C)[Si](F)(c1ccc(COC2CCCCO2)cc1)C(C)C` (racemic) [3a - F, (RS)-Fluoro-diisopropyl-[4-(tetrahydro-pyran-2-yloxymethyl)-phenyl]-silane], in data set [1], the fraction remaining at 6 h is 90%, the half-life is 49.4 h and the rel. stability stood at 27.0.

For the molecule `CC(C)[Si](F)(c1ccc(CCOC2CCCCO2)cc1)C(C)C` (racemic) [3b - F, (RS)-Fluoro-diisopropyl-{4-[2-(tetrahydro-pyran-2-yloxy)-ethyl]-phenyl}-silane], in data set [1], the fraction remaining at 6 h was 94%, the half-life is 76.4 h and the rel. stability is reported as 41.8.

As for `CC(C)C[Si](F)(CCCCC(=O)Nc1ccccc1)CC(C)C` [30a - 1F, 5-(Fluoro-diisobutyl-silanyl)-pentanoic acid phenylamide], in data set [1], the share remaining at 6 h was determined as 71%, the half-life was 13.8 h and the rel. stability is given as 7.5.

Regarding `CC(C)[Si](F)(c1ccc(CCC(=O)O)cc1)C(C)C` [5c - F, 3-[4-(Fluoro-diisopropyl-silanyl)-phenyl]-propionic acid], in data set [1], the amount remaining at 6 h was found to be 92%, the half-life was 59 h and the rel. stability stood at 32.2.

Turning to `CC(C)[Si](F)(c1ccc(CC(=O)O)cc1)C(C)C` [5b - F, [4-(Fluoro-diisopropyl-silanyl)-phenyl]-acetic acid], in data set [1], the fraction remaining at 6 h was determined as 82%, the half-life was 24.7 h and the rel. stability was determined as 13.5.

Consider `CC(C)[Si](F)(c1cccc(CCCO)c1)C(C)C` [4d - F, 3-[3-(Fluoro-diisopropyl-silanyl)-phenyl]-propan-1-ol], for which, in data set [1], the amount remaining at 6 h stood at 89%, the half-life was 43.3 h and the rel. stability is on record as 23.7.

For the molecule `C[Si](C)(C)[18F]` [^18F-Fluorotrimethylsilane], the “uptake of ^18F in the bone” value in data set [2] was “extensive uptake of ^18F in the bone”.

Regarding `CC(C)[Si](F)(c1ccc(CO)cc1)C(C)C` [4a -F, [4-(Fluoro-diisopropyl-silanyl)-phenyl]-methanol], in data set [1], the fraction remaining at 6 h worked out at 85%, the half-life was 28.1 h and the rel. stability amounted to 15.4.
